According to PubChem BioAssay (NCI):
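Step 1: Grow cells in 96-well plates. Step 2: Expose to compound for 48 hours at 5 concentrations. Step 3: Interpolate endpoints linearly; if unreached, use highest concentration. TGI: concentration producing complete growth inhibition.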

Assays:
Assay in all cases: inhibition of tumour cell growth, NCI panel, 48 h
[1] = tested on: NCI-H460 lung
[2] = tested on: MDA-MB-231 breast
[3] = tested on: EKVX NSCLC
[4] = tested on: HCT-116 colon
[5] = tested on: SNB-19 CNS
[6] = tested on: HCC-2998 colon
[7] = tested on: HOP-92 NSCLC
[8] = tested on: SF-295 CNS
[9] = tested on: OVCAR-8 ovarian
[10] = tested on: NCI-H226 lung
[11] = tested on: TK-10 renal
[12] = tested on: SF-539 CNS
[13] = tested on: SK-MEL-5 melanoma
[14] = tested on: MOLT-4 leukemia
[15] = tested on: T-47D breast
[16] = tested on: RPMI-8226 leukemia

Row | Structure (SMILES) | TGI [1] [µM] | TGI [2] [µM] | TGI [3] [µM] | TGI [4] [µM] | TGI [5] [µM] | TGI [6] [µM] | TGI [7] [µM] | TGI [8] [µM] | TGI [9] [µM] | TGI [10] [µM] | TGI [11] [µM] | TGI [12] [µM] | TGI [13] [µM] | TGI [14] [µM] | TGI [15] [µM] | TGI [16] [µM]
1 | Cc1[nH]c(=O)nc2nc3cc(Cl)cc(Cl)c3c(NC(C)(CO)CO)c12 | > 100 | 36.9 | > 100 | > 100 | > 100 | > 100 | 57.7 | > 100 | > 100 | > 100 | 84.1 | > 100 | > 100 | > 100 | > 100 | 
2 | CCOC(=O)c1nc2cc(C(F)(F)F)ccc2nc1Oc1ccc(C#N)cc1 | > 100 | > 100 | > 100 | > 100 | > 100 | > 100 | > 100 | > 100 | > 100 | > 100 | > 100 | > 100 | > 100 | > 100 | > 100 | > 100
3 | Cc1cc(S(=O)(=O)Nc2n[nH]c(-c3ccc(Cl)cc3)n2)c(SSc2cc(Cl)c(C)cc2S(=O)(=O)Nc2n[nH]c(-c3ccc(Cl)cc3)n2)cc1Cl | 62.4 | > 100 | 89.6 | > 100 |  | 40.7 | 76.8 | > 100 | > 100 | 73.3 | > 100 | > 100 | 86.8 | 54.2 | 42.2 | > 100
4 | N#C/C(=C\c1ccc(F)cc1)c1nc(-c2cc3ccccc3oc2=O)cs1 | > 100 | 33.7 | > 100 | > 100 | 41.1 | > 100 | 29.5 | 30.3 | 71.9 | > 100 | 38.3 | 65.9 | 41.6 | > 100 | > 100 | > 100
5 | COc1cc(OC)cc(OCc2nc3cc(C(F)(F)F)ccc3nc2-c2ccccc2)c1 | > 100 | > 100 | > 100 | > 100 | > 100 | > 100 | > 100 | > 100 | > 100 | > 100 | > 100 | > 100 |  | > 100 | > 100 | > 100
6 | CC1=NN(c2nc(N)nc(CN3CCOCC3)n2)C(C)(C)C1 | > 100 | > 100 | > 100 | > 100 | > 100 | > 100 | > 100 | > 100 | > 100 | > 100 | > 100 | > 100 | > 100 | > 100 | > 100 | > 100
7 | O=C(O)c1ccccc1C(=O)NCC1S(=O)(=O)OCCOS1(=O)=O | > 100 | > 100 | > 100 | > 100 | > 100 | > 100 | > 100 | > 100 | > 100 | > 100 | > 100 | > 100 | > 100 | > 100 | > 100 | > 100
8 | O=c1c2cc(-c3ccccc3)cnc2sn1-c1ccc(Br)cc1 | > 100 | > 100 | > 100 | > 100 | > 100 | > 100 | > 100 | > 100 | > 100 | > 100 |  | > 100 |  | > 100 | > 100 | > 100
9 | O=C(Nc1ccccc1)c1cc(S(=O)(=O)Nc2n[nH]c(=O)n2-c2ccccc2)c(S)cc1Cl | > 100 | > 100 | > 100 | > 100 | > 100 | > 100 | > 100 |  | > 100 | > 100 | > 100 | > 100 | > 100 | > 100 | > 100 | > 100
10 | CC(/C=C/C(=O)NO)=C\C(C)C(=O)c1ccc(N(C)C)cc1 (stereo not given) | 0.0658 | 0.0538 | 41 | 11.5 | 0.654 | < 0.0113 | 0.388 | 0.454 | 41.6 | 12.9 | 0.107 | 2.04 | 0.187 |  | > 100 | 74.1
11 | COc1ccc(C(=O)C#Cc2cn(C3CC(O)C(CO)O3)c(=O)[nH]c2=O)cc1 (stereo not given) | > 100 | > 100 | > 100 | > 100 | > 100 | > 100 | 45.9 | > 100 | > 100 | > 100 | > 100 | 45.1 | > 100 | > 100 | 35.4 | > 100
12 | Cc1cc(NC2=CC(=O)C(=O)c3ccccc32)no1 | 23.3 | > 67.2 | 31.5 | 34.4 | 31.9 | 35.2 | 30.1 | 21.6 | 29.4 | 35.9 | 63.4 | 13.4 | 6.57 | 31.7 | 32.7 | 32.5
13 | CSC12c3cc(C)n(-c4ccc([N+](=O)[O-])cc4)c3CC(C)(C)CN1C(=O)C2Oc1ccccc1 (stereo not given) | > 100 | > 100 | > 100 | > 100 | > 100 | > 100 | > 100 | > 100 | > 100 | > 100 |  | > 100 | > 100 | > 100 | > 100 | > 100
14 | c1csc(-c2nn3c(C45CC6CC(CC(C6)C4)C5)nnc3s2)c1 | > 100 | > 100 | > 100 | > 100 | > 100 | > 100 | > 100 | > 100 | > 100 | > 100 |  | > 100 | > 100 | > 100 | > 100 | > 100
